According to ChEMBL document CHEMBL4627398 (J Med Chem, 2020):
In brackets after ≈: the same amount, converted by molar mass. Each block holds one molecule with its values, some of them ahead of it.

Experiments:
[1] = Metabolic stability in human liver microsomes incubated for 60 mins; format: ADME, Microsome; settings: read-out: Stability
[2] = Clearance in monkey at 0.1 mg/kg, iv; format: ADME, organism-based, Macaca mulatta; settings: rhesus monkey, in vivo
[3] = Metabolic stability in monkey liver microsomes incubated for 60 mins; format: ADME, Macaca mulatta, Microsome; settings: rhesus monkey, read-out: Stability
[4] = Total clearance in dog at 0.3 mg/kg, iv; format: ADME, organism-based, Canis lupus familiaris; settings: in vivo
[5] = Terminal half life in rat at 1 mg/kg, iv; format: ADME, organism-based; settings: in vivo, read-out: beta t1/2 (converted)
[6] = Solubility of the compound in FeSSIF; format: physicochemical
[7] = Solubility of the compound in human Caco2 cells; format: ADME, cell-based; settings: Caco-2 cells
[8] = Total clearance in rat at 1 mg/kg, iv; format: ADME, organism-based; settings: in vivo
[9] = Metabolic stability in human hepatocytes incubated for 60 mins; format: ADME, cell-based, Hepatocyte; settings: read-out: Stability
[10] = Apparent permeability in human Caco2 cells; format: ADME, cell-based; settings: Caco-2
[11] = Metabolic stability in rat liver microsomes incubated for 60 mins; format: ADME, Microsome; settings: read-out: Stability
[12] = Solubility of the compound in PBS buffer; format: physicochemical
[13] = Tmax in rat at 10 mg/kg, po; format: ADME, organism-based; settings: in vivo
[14] = Cmax in rat at 10 mg/kg, po; format: ADME, organism-based; design: dose 10 mg/kg, route oral; settings: in vivo
[15] = Volume of distribution at steady state in rat at 1 mg/kg, iv; format: ADME, organism-based; settings: in vivo, read-out: Vdss
[16] = Cmax in dog at 1 mg/kg, po; format: ADME, organism-based, Canis lupus familiaris; design: dose 1 mg/kg, route oral; settings: in vivo
[17] = Oral bioavailability in dog at 1 mg/kg; format: ADME, organism-based, Canis lupus familiaris; settings: in vivo
[18] = Solubility of the compound in FaSSIF; format: physicochemical
[19] = Volume of distribution at steady state in dog at 0.3 mg/kg, iv; format: ADME, organism-based, Canis lupus familiaris; settings: in vivo, read-out: Vdss
[20] = MRT in rat at 1 mg/kg, iv; format: ADME, organism-based; settings: in vivo
[21] = Metabolic stability in dog liver microsomes incubated for 60 mins; format: ADME, Canis lupus familiaris, Microsome; settings: read-out: Stability
[22] = Metabolic stability in monkey hepatocytes incubated for 60 mins; format: ADME, cell-based, Macaca mulatta, Hepatocyte; settings: rhesus monkey, read-out: Stability
[23] = Lipophilicity, logD of the compound at pH 7; format: physicochemical; settings: buffer
[24] = Metabolic stability in rat hepatocytes incubated for 60 mins; format: ADME, cell-based, Hepatocyte; settings: read-out: Stability
[25] = MRT in dog at 0.3 mg/kg, iv; format: ADME, organism-based, Canis lupus familiaris; settings: in vivo
[26] = Terminal half life in dog at 0.3 mg/kg, iv; format: ADME, organism-based, Canis lupus familiaris; settings: in vivo, read-out: beta t1/2 (converted)
[27] = Tmax in dog at 1 mg/kg, po; format: ADME, organism-based, Canis lupus familiaris; settings: in vivo
[28] = Oral bioavailability in rat at 10 mg/kg; format: ADME, organism-based; settings: in vivo

Compound: N#CCC(=O)N1CC(F)(F)C12CCN(c1ncnc3[nH]ccc13)C2 (single isomer, unassigned)
- remaining at 1 h [1]: 99.4%
- clearance [2]: 5.83 mL/min/kg
- remaining at 1 h [3]: 95.4%

Compound: C[C@H]1CN(C(=O)CC#N)[C@]12CCN(c1ncnc3[nH]ccc13)C2 [DELGOCITINIB]
- clearance [4]: 6.17 mL/min/kg
- half-life [5]: 1.7 h
- solubility [6]: > 475 µM
- solubility [7]: 1 µM (≈ 0.31 µg/mL)
- clearance [8]: 35 mL/min/kg
- remaining at 1 h [9]: 99.3%
- Papp [10]: 0.033 ×10⁻⁶ cm/s
- remaining at 1 h [11]: 90.2%
- solubility [12]: > 95 µM
- Tmax [13]: 1.5 h
- Cmax [14]: 2.5 ng/mL
- Vd [15]: 2.1 L/kg
- Cmax [16]: 1.9 ng/mL
- bioavailability [17]: 124%
- solubility [18]: > 475 µM
- remaining at 1 h [1]: 97.4%
- clearance [2]: 4.83 mL/min/kg
- remaining at 1 h [3]: 99.6%
- Vd [19]: 1.2 L/kg
- MRT [20]: 1 h
- remaining at 1 h [21]: 97.2%
- remaining at 1 h [22]: 84.8%
- logD [23]: 0.6
- remaining at 1 h [24]: 94.7%
- MRT [25]: 3.2 h
- half-life [26]: 2.3 h
- Tmax [27]: 0.9 h
- bioavailability [28]: 78%

Compound: N#CCC(=O)N1CCC12CCCN(c1ncnc3[nH]ccc13)C2 (single isomer, unassigned)
- remaining at 1 h [1]: 93.4%
- clearance [2]: 12.7 mL/min/kg
- remaining at 1 h [3]: 85.2%

Compound: N#CCC(=O)N1CCCC12CCCN(c1ncnc3[nH]ccc13)C2 (single isomer, unassigned)
- remaining at 1 h [1]: 75.7%
- remaining at 1 h [3]: 29.4%

Second part, the molecule after the results:

- remaining at 1 h [1]: 73.4%
- remaining at 1 h [3]: 25.1%
Compound: CC1CN(C(=O)CC#N)C12CCCN(c1ncnc3[nH]ccc13)C2 (stereo not given)

- remaining at 1 h [1]: 88.4%
- remaining at 1 h [3]: 64.6%
Compound: N#CCC(=O)N1CC(F)(F)C12CCCN(c1ncnc3[nH]ccc13)C2 (single isomer, unassigned)
